From patent publication US12157730B2, “Heteroaryl derivative, method for producing same, and pharmaceutical composition comprising same as effective component” (VORONOI INC., priority 2019, dated 2024)

Each compound was assayed against T1, Ba/F3 cell EGFR Exon20 ins NPH (Homo sapiens, UniProt P00533, INS773NPH) (assay: Ba/F3 cell proliferation suppression, EGFR Exon20 ins NPH). Settings: GI50 class; Ba/F3 cell line with NPH inserted at Exon20 of EGFR; 72 hours.
T1 construct: expressed in transfected cells; host or cells: Ba/F3
Type: cell-based
In short: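 After 72 h compound exposure (twelve 3-fold steps, 0.3 nM–50 um final), live cells were measured by CellTiter-Glo luminescence and growth expressed as % of control to derive GI50. Cells were seeded at 3000–5000 per well a day earlier; Ba/F3 medium contained IL-3; three repeats.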

| SMILES | Ba/F3 (NPH) Activity |
| --- | --- |
| C=CC(=O)Nc1cc(Nc2cc(N3OCC[C@@H]3c3ccc4ccccc4c3)ncn2)c(OC)cc1N1CC[C@@H](N(C)C)C1 [compound 513, N-(2-((R)-3-(dimethylamino)pyrolidine-1-yl)-4-methoxy-5-((6-((R)-3-(naphthalene-2-yl)isoxazolidine-2-yl)pyrimidine-4-yl)amino)phenyl)acrylamide] | B (50 nM ≤ GI50 < 500 nM) |
| C=CC(=O)Nc1cc(Nc2cc(N3OCC[C@@H]3Cc3cccc(F)c3C)ncn2)c(OC)cc1N1CC[C@@H](N(C)C)C1 [compound 1002, N-(2-((R)-3-(dimethylamino)pyrolidine-1-yl)-5-((6-((S)-3-(3-fluoro-2-methylbenzyl)isoxazolidine-2-yl)pyrimidine-4-yl)amino)-4-methoxyphenyl) acrylamide] | A (GI50 < 50 nM) |
| C=CC(=O)Nc1cc(Nc2cc(N3OCC[C@@H]3c3cc(F)cc(F)c3)ncn2)c(OC)cc1N1CCC(N2C[C@H]3COC[C@H]3C2)CC1 [Example 105, N-(5-((6-((R)-3-(3,5-difluorophenyl)isoxazolidine-2-yl)pyrimidine-4-yl)amino)-4-methoxy-2-(4-((3aR, 6aS)-tetrahydro-1H-puro[3,4-c]pyrrole-5(3H)-yl)piperidine-1-yl)phenyl)acrylamide] | A (GI50 < 50 nM) |
| C=CC(=O)Nc1cc(Nc2cc(N3OCC[C@@H]3Cc3ccccc3)ncn2)c(OC)cc1N1CC[C@@H](N(C)C)C1 [compound 964, N-(5-((6-((S)-3-benzylisoxazolidine-2-yl)pyrimidine-4-yl)amino)-2-((R)-3-(dimethylamino)pyrolidine-1-yl)-4-methoxyphenyl) acrylamide] | A (GI50 < 50 nM) |
| C=CC(=O)Nc1cc(Nc2cc(N3OCC[C@@H]3c3ccc(Cl)c(Cl)c3F)ncn2)c(OC)cc1N1CC[C@@H](N(C)C)C1 [Example 291, N-(5-((6-((R)-3-(3,4-dichloro-2-fluorophenyl)isoxazolidine-2-yl)pyrimidine-4-yl)amino)-2-((R)-3-(dimethylamino)pyrolidine-1-yl)-4-methoxyphenyl) acrylamide] | B (50 nM ≤ GI50 < 500 nM) |
| C=CC(=O)Nc1cc(Nc2cc(N3OCC[C@@H]3c3c(F)ccc(F)c3F)ncn2)c(OC)cc1N(C)CCN(C)C [compound 628, N-(2-((2-(dimethylamino)ethyl) (methyl)amino)-4-methoxy-5-((6-((R)-3-(2,3,6-trifluorophenyl)isoxazolidine-2-yl)pyrimidine-4-yl)amino)phenyl)acrylamide] | A (GI50 < 50 nM) |
| C=CC(=O)Nc1cc(Nc2cc(N3OCC[C@@H]3c3cc(F)cc(F)c3)ncn2)c(F)cc1N1CCC(N2CCN(C3CC3)CC2)CC1 [compound 533, N-(2-(4-(4-cyclopropylpiperazine-1-yl)piperidine-1-yl)-5-((6-((R)-3-(3,5-difluorophenyl)isoxazolidine-2-yl)pyrimidine-4-yl)amino)-4-fluorophenyl) acrylamide] | A (GI50 < 50 nM) |
| C=CC(=O)Nc1cc(Nc2cc(N3OCC[C@@H]3c3ccc(F)cc3F)ncn2)c(OC)cc1N1CCN(C(C)=O)CC1 [compound 343] | A (GI50 < 50 nM) |
| C=CC(=O)Nc1cc(Nc2cc(N3OCC[C@@H]3c3cc(F)cc(F)c3)ncn2)c(OC)cc1N1CCC(N2CCN(C3CCCC3)CC2)CC1 [Example 98, N-(2-(4-(4-cyclopentylpiperazine-1-yl)piperidine-1-yl)-5-((6-((R)-3-(3,5-difluorophenyl)isoxazolidine-2-yl)pyrimidine-4-yl)amino)-4-methoxyphenyl) acrylamide] | A (GI50 < 50 nM) |
| C=CC(=O)Nc1cc(Nc2cc(N3OCC[C@@H]3c3cccc(C(F)(F)F)c3)ncn2)c(OC)cc1N1CCN(C)CC1 [compound 450, N-(4-methoxy-2-(4-methylpiperazine-1-yl)-5-((6-((R)-3-(3-(trifluoromethyl)phenyl)isoxazolidine-2-yl)pyrimidine-4-yl)amino)phenyl)acrylamide] | A (GI50 < 50 nM) |
| C=CC(=O)Nc1cc(Nc2cc(N3OCC[C@@H]3Cc3cccc(Cl)c3Cl)ncn2)c(OC)cc1N(C)CCN(C)C [compound 982, N-(5-((6-((S)-3-(2,3-dichlorobenzyl)isoxazolidine-2-yl)pyrimidine-4-yl)amino)-2-((2-(dimethylamino)ethyl)(methyl)amino)-4-methoxyphenyl) acrylamide] | A (GI50 < 50 nM) |
| C=CC(=O)Nc1cc(Nc2cc(N3OCC[C@@H]3c3ccc(F)cc3)ncn2)c(OC)cc1N1CCC(N2C[C@@H]3C[C@H]2CO3)CC1 [compound 812, N-(2-(4-((1S,4S)-2-oxa-5-azabicyclo [2.2.1]heptane-5-yl)piperidine-1-yl)-5-((6-((R)-3-(4-fluorophenyl)isoxazolidine-2-yl)pyrimidine-4-yl)amino)-4-methoxyphenyl) acrylamide] | A (GI50 < 50 nM) |

Further lines, results first:

| Ba/F3 (NPH) Activity | SMILES |
| --- | --- |
| A (GI50 < 50 nM) | C=CC(=O)Nc1cc(Nc2cc(N3OCC[C@@H]3c3cc(F)ccc3F)ncn2)c(OC)cc1N1CCN(C2CC2)C[C@@H]1C [compound 879, N-(2-((S)-4-cyclopropyl-2-methylpiperazine-1-yl)-5-((6-((R)-3-(2,5-difluorophenyl)isoxazolidine-2-yl)pyrimidine-4-yl)amino)-4-methoxyphenyl) acrylamide] |
| A (GI50 < 50 nM) | C=CC(=O)Nc1cc(Nc2cc(N3OCC[C@@H]3c3ccccc3)ncn2)c(OC)cc1N1CCC(N2CCN(C3CC3)CC2)CC1 [Example 56, N-(2-(4-(4-cyclopropylpiperazine-1-yl)piperidine-1-yl)-4-methoxy-5-((6-((R)-3-phenylisoxazolidine-2-yl)pyrimidine-4-yl)amino)phenyl) acrylamide] |
| A (GI50 < 50 nM) | C=CC(=O)Nc1cc(Nc2cc(N3OCC[C@@H]3c3c(F)ccc(F)c3Cl)ncn2)c(OC)cc1N1CCC(N2CCN(C3CC3)[C@H](C)C2)CC1 [compound 935, N-(5-((6-((R)-3-(2-chloro-3,6-difluorophenyl)isoxazolidine-2-yl)pyrimidine-4-yl)amino)-2-(4-((R)-4-cyclopropyl-3-methylpiperazine-1-yl)piperidine-1-yl)-4-methoxyphenyl) acrylamide] |
| A (GI50 < 50 nM) | C=CC(=O)Nc1cc(Nc2cc(N3OCC[C@@H]3c3cc(F)cc(Cl)c3)ncn2)c(OC)cc1N1CCC(N2CCN(C3CC3)[C@@H](C)C2)CC1 [Example 157, N-(5-((6-((R)-3-(3-chloro-5-fluorophenyl)isoxazolidine-2-yl)pyrimidine-4-yl)amino)-2-(4-((S)-4-cyclopropyl-3-methylpiperazine-1-yl)piperidine-1-yl)-4-methoxyphenyl) acrylamide] |
| A (GI50 < 50 nM) | C=CC(=O)Nc1cc(Nc2cc(N3OCC[C@@H]3c3cc(F)ccc3F)ncn2)c(OC)cc1N1CCC(N2C[C@H](C)N(C3CC3)C[C@H]2C)CC1 [Example 173, N-(2-(4-((2R,5S)-4-cyclopropyl-2,5-dimethylpiperazine-1-yl)piperidine-1-yl)-5-((6-((R)-3-(2,5-difluorophenyl)isoxazolidine-2-yl)pyrimidine-4-yl)amino)-4-methoxyphenyl) acrylamide] |
| A (GI50 < 50 nM) | C=CC(=O)Nc1cc(Nc2cc(N3OCC[C@@H]3Cc3cccc(Cl)c3F)ncn2)c(OC)cc1N1CCC(N2CCN(C3CC3)[C@H](C)C2)CC1 [compound 1019, N-(5-((6-((S)-3-(3-chloro-2-fluorobenzyl)isoxazolidine-2-yl)pyrimidine-4-yl)amino)-2-(4-((R)-4-cyclopropyl-3-methylpiperazine-1-yl)piperidine-1-yl)-4-methoxyphenyl) acrylamide] |
| A (GI50 < 50 nM) | C=CC(=O)Nc1cc(Nc2cc(N3OCC[C@@H]3c3ccc(F)cc3F)ncn2)c(OC)cc1N1CCN(C2CCCC2)CC1 [compound 348, N-(2-(4-cyclopentylpiperazine-1-yl)-5-((6-((R)-3-(2,4-difluorophenyl)isoxazolidine-2-yl)pyrimidine-4-yl)amino)-4-methoxyphenyl) acrylamide] |
| A (GI50 < 50 nM) | C=CC(=O)Nc1cc(Nc2cc(N3OCC[C@@H]3c3cccc(C)c3F)ncn2)c(OC)cc1N1CCC(N2CCN(C3CC3)CC2)CC1 [Example 140, N-(2-(4-(4-cyclopropylpiperazine-1-yl)piperidine-1-yl)-5-((6-((R)-3-(2-fluoro-3-methylphenyl)isoxazolidine-2-yl)pyrimidine-4-yl)amino)-4-methoxyphenyl) acrylamide] |
| A (GI50 < 50 nM) | C=CC(=O)Nc1cc(Nc2cc(N3OCC[C@@H]3c3ccc(Cl)cc3)ncn2)c(OC)cc1N1CCC(N2CC[C@H](N(C)C)C2)CC1 [compound 784, N-(5-((6-((R)-3-(4-chlorophenyl)isoxazolidine-2-yl)pyrimidine-4-yl)amino)-2-(4-((S)-3-(dimethylamino)pyrolidine-1-yl)piperidine-1-yl)-4-methoxyphenyl) acrylamide] |
| A (GI50 < 50 nM) | C=CC(=O)Nc1cc(Nc2cc(N3OCC[C@@H]3c3cccc(F)c3F)ncn2)c(OC)cc1N1CCC(N2CCN(C)[C@H](C)C2)CC1 [compound 336, N-(5-((6-((R)-3-(2,3-difluorophenyl)isoxazolidine-2-yl)pyrimidine-4-yl)amino)-2-(4-((R)-3,4-dimethylpiperazine-1-yl)piperidine-1-yl)-4-methoxyphenyl) acrylamide] |
| A (GI50 < 50 nM) | C=CC(=O)Nc1cc(Nc2cc(N3OCC[C@@H]3c3ccc(Cl)cc3F)ncn2)c(OC)cc1N1CCC(N2CCN(C(C)=O)CC2)CC1 [compound 375, N-(2-(4-(4-acetylpiperazine-1-yl)piperidine-1-yl)-5-((6-((R)-3-(4-chloro-2-fluorophenyl)isoxazolidine-2-yl)pyrimidine-4-yl)amino)-4-methoxyphenyl) acrylamide] |
